This is an account of results in EP1803452A1, “ESTER DERIVATIVE AND PHARMACEUTICAL USE THEREOF” (Japan Tobacco, Inc., priority 2004, dated 2006).

Series [1] can be described thus: Metabolic stability test in plasma. Conditions: LC/MS; for remaining at 10 min: unchanged form after 10 minutes at 37°C in human plasma, read-out: Remaining rate in human plasma (%/10min); for remaining at 1 h: unchanged form after 60 minutes at 37°C in human plasma, read-out: Remaining rate in human plasma (%/60min). The class given is in vitro ADME, human. In short, it runs like this: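 Compound in DMSO spiked into human, mouse or hamster plasma, incubated at 37°C for 0, 10 and 60 minutes, then quenched with acetonitrile/formic acid (final 0.1%). Unchanged compound in supernatant quantified by LC/MS; remaining rate (%) relative to time zero.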

Series [2] in a line: Stability test in buffer (pH 7.4). Type of series: physicochemical. Particulars: phosphate buffer/acetonitrile 7:3, 100 mM potassium phosphate buffer (pH 7.4) and acetonitrile 7:3 (v/v), LC/MS; for remaining at 10 min: 10 minutes at 37°C, read-out: Buf. remaining rate (%/10min); for remaining at 1 h: 60 minutes at 37°C, read-out: Buf. remaining rate (%/60min). In outline: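 Compound from DMSO solution incubated at 37°C in 100 mM potassium phosphate buffer/acetonitrile 7:3 (v/v) for 0, 10 and 60 min, then quenched with acetonitrile containing formic acid (final 0.1%). Unchanged compound in supernatant quantified by LC/MS; remaining rate (%) = amount at each time / amount at zero time × 100.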

A short description of series [3]: Metabolic stability test in liver S9. Particulars: pH 7.4, human liver S9 2 mg protein/mL, LC/MS; for remaining at 10 min: unchanged form after 10 minutes at 37°C, read-out: Remaining rate in human liver S9 (%/10min); for remaining at 1 h: unchanged form after 60 minutes at 37°C, read-out: Remaining rate in human liver S9 (%/60min). The class given is in vitro ADME. In short, it runs like this:
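Compound from DMSO solution was incubated at 37°C with human liver S9 (final 2 mg protein/mL) in 100 mM potassium phosphate pH 7.4 with an NADPH-regenerating system for 0, 10 and 60 minutes. Reactions were stopped with acetonitrile/0.1% formic acid. Unchanged compound was measured by LC/MS as remaining rate (%) relative to zero time.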

SMILES strings stand for the structures.

Regarding `COC(=O)c1ccc(OC(=O)CCCc2ccc(NC(=O)c3ccccc3-c3ccc(C(F)(F)F)cc3)c(C(=O)N(C)C)c2)cc1` [Compound 1-5, 4-(4-(3-dimethylcarbamoyl-4-[(4'-trifluoromethylbiphenyl-2-carbonyl)amino]phenyl}butyryloxy)benzoic acid methyl ester], the remaining at 10 min in series [1] turned out to be 11%; in series [2] it was 100%; in series [3] it was 0%. Also, the results for the remaining at 1 h in series [1], in series [2] and in series [3] were 0%, 101% and 0%, respectively.
Turning to `CCOC(=O)c1ccc(OC(=O)CCCc2ccc(NC(=O)c3ccccc3-c3ccc(C(F)(F)F)cc3)c(C(=O)N(C)C)c2)cc1` [Compound 1-6, 4-(4-{3-dimethylcarbamoyl-4-[(4'-trifluoromethylbiphenyl-2-carbonyl)amino]phenyl}butyryloxy)benzoic acid ethyl ester], the remaining at 10 min came out at 53% in series [1], 102% in series [2] and 0% in series [3]. Further, the remaining at 1 h in series [1] amounted to 0%; in series [2], 102%; in series [3], 0%.
Take `Cc1ccc(C(=O)Nc2ccc(CCCC(=O)Oc3ccc(C(=O)OCc4cccnc4)cc3)cc2C(=O)N(C)C)c(-c2ccc(C(F)(F)F)cc2)n1` [Compound 1-94, 4-[4-(3-dimethylcarbamoyl-4-{[6-methyl-2-(4-trifluoromethylphenyl)pyridine-3-carbonyl]amino}phenyl)butyryloxy]benzoic acid pyridin-3-ylmethyl ester]: the values for the remaining at 10 min in series [1], in series [2] and in series [3] were 41%, 99% and 0%, respectively. Further, the remaining at 1 h in series [1] came to 9%; in series [2] it was 102%; in series [3] it was 0%.
With `COC(=O)c1cc(OC)c(OC(=O)CCCc2ccc(NC(=O)c3ccc(C)nc3-c3ccc(C(F)(F)F)cc3)c(C(=O)N(C)C)c2)c(C(=O)OC)c1` [Compound 1-53, 4-[4-(3-dimethylcarbamoyl-4-{[6-methyl-2-(4-trifluoromethylphenyl)pyridine-3-carbonyl]amino}phenyl)butyryloxy]-5-methoxyisophthalic acid dimethyl ester], the results for the remaining at 10 min in series [1], in series [2] and in series [3] were 3%, 100% and 5%, respectively. Moreover, the remaining at 1 h in series [1] is 3%; in series [2], 106%; in series [3], 2%.
`COC(=O)c1cc(Cl)c(OC(=O)CCCc2ccc(NC(=O)c3ccc(C)nc3-c3ccc(C(F)(F)F)cc3)c(C(=O)N(C)C)c2)c(C(C)C)c1` [Compound 1-74, 3-chloro-4-[4-(3-dimethylcarbamoyl-4-{[6-methyl-2-(4-trifluoromethylphenyl)pyridine-3-carbonyl]amino}phenyl)butyryloxy]-5-isopropylbenzoic acid methyl ester]: the remaining at 10 min in series [1] was determined as 77%; in series [2] it was 102%; in series [3] it was 24%. In addition, the remaining at 1 h in series [1] was 19%; in series [2] it was 101%; in series [3] it was 9%.
`COC(=O)c1ccc(OC(=O)CCCc2ccc(NC(=O)c3ccccc3-c3ccc(C(F)(F)F)cc3)c(C(=O)N(C)C)c2)c(C)c1` [Compound 1-66, 4-[4-(3-dimethylcarbamoyl-4-{(4'-trifluoromethylbiphenyl-2-carbonyl)amino}phenyl)butyryloxy]-3-methylbenzoic acid methyl ester]: the values for the remaining at 10 min in series [1], in series [2] and in series [3] were 67%, 101% and 3%, respectively. Besides, the remaining at 1 h stood at 8% in series [1], 103% in series [2] and 0% in series [3].
Regarding `COC(=O)c1ccc(OC(=O)CCCc2ccc(NC(=O)c3ccccc3-c3ccc(C(F)(F)F)cc3)c(C(=O)N3CCCC3)c2)cc1` [Compound 1-15, 4-(4-{3-(pyrrolidine-1-carbonyl)-4-[(4'-trifluoromethylbiphenyl-2-carbonyl)amino]phenyl}butyryloxy)benzoic acid methyl ester], the remaining at 10 min in series [1] came out at 42%; in series [2] it was 98%; in series [3], 4%. The remaining at 1 h in series [1] is 0%; in series [2], 100%; in series [3] it was 0%.
Consider `CN(C)C(=O)c1cc(CCCC(=O)Oc2ccc(C(=O)OCc3ccccc3)cc2)ccc1NC(=O)c1ccccc1-c1ccc(C(F)(F)F)cc1` [Compound 1-24, 4-(4-{3-dimethylcarbamoyl-4-[(4'-trifluoromethylbiphenyl-2-carbonyl)amino]phenyl}butyryloxy)benzoic acid benzyl ester], for which the remaining at 10 min was found to be 9% in series [1], 95% in series [2] and 10% in series [3]. Also, the remaining at 1 h in series [1] was found to be 4%; in series [2], 95%; in series [3], 6%.
As to `COC(=O)c1ccc(-c2nc(C)ccc2C(=O)Nc2ccc(CCCC(=O)Oc3c(Cl)cc(C(=O)OC)cc3OC)cc2C(=O)N(C)C)cc1` [Compound 4-4, 3-chloro-4-[4-(3-dimethylcarbamoyl-4-{[2-(4-methoxycarbonylphenyl)-6-methylpyridine-3-carbonyl]amino}phenyl)butyryloxy]-5-methoxybenzoic acid methyl ester], the values for the remaining at 10 min in series [1], in series [2] and in series [3] were 0%, 99% and 4%, respectively. Also, the remaining at 1 h in series [1] was found to be 0%; in series [2], 97%; in series [3], 0%.
For `COC(=O)c1ccc(OC(=O)CCCc2ccc(NC(=O)c3ccc(C)nc3-c3ccc(C(F)(F)F)cc3)c(C(=O)N(C)C)c2)cn1` [Compound 1-32, 5-[4-(3-dimethylcarbamoyl-4-{[6-methyl-2-(4-trifluoromethylphenyl)pyridine-3-carbonyl]amino}phenyl)butyryloxy]pyridine-2-carboxylic acid methyl ester], the remaining at 10 min in series [1] was 0%; in series [2], 100%; in series [3] it was 0%. The remaining at 1 h in series [1] turned out to be 0%; in series [2] it was 97%; in series [3] it was 0%.
Take `CC(C)OC(=O)c1ccc(OC(=O)CCCc2ccc(NC(=O)c3ccccc3-c3ccc(C(F)(F)F)cc3)c(C(=O)N(C)C)c2)cc1` [Compound 1-7, 4-(4-{3-dimethylcarbamoyl-4-[(4'-trifluoromethylbiphenyl-2-carbonyl)amino]phenyl}butyryloxy)benzoic acid isopropyl ester]: the remaining at 10 min amounted to 60% in series [1], 98% in series [2] and 0% in series [3]. Besides, the remaining at 1 h came out at 0% in series [1], 98% in series [2] and 0% in series [3].
Regarding `Cc1ccc(C(=O)Nc2ccc(CCCC(=O)Oc3ccc(C(=O)OC(C)C)cc3)cc2C(=O)N(C)C)c(-c2ccc(C(F)(F)F)cc2)n1` [Compound 1-81, 4-[4-(3-dimethylcarbamoyl-4-{[6-methyl-2-(4-trifluoromethylphenyl)pyridine-3-carbonyl]amino}phenyl)butyryloxy]benzoic acid isopropyl ester], the remaining at 10 min in series [1] was determined as 51%; in series [2], 99%; in series [3], 4%. Besides, the figures for the remaining at 1 h in series [1], in series [2] and in series [3] were 2%, 97% and 1%, respectively.
For the molecule `COc1cc(C(=O)OCC(=O)N(C)C)cc(Cl)c1OC(=O)CCCc1ccc(NC(=O)c2ccc(C)nc2-c2ccc(C(F)(F)F)cc2)c(C(=O)N(C)C)c1` [Compound 1-113, 3-chloro-4-[4-(3-dimethylcarbamoyl-4-{[6-methyl-2-(4-trifluoromethylphenyl)pyridine-3-carbonyl]amino}phenyl)butyryloxy]-5-methoxybenzoic acid dimethylcarbamoylmethyl ester], the remaining at 10 min is 1% in series [1], 103% in series [2] and 8% in series [3]. In addition, the remaining at 1 h worked out at 0% in series [1], 104% in series [2] and 2% in series [3].
As to `COC(=O)c1cc(Br)c(OC(=O)CCCc2ccc(NC(=O)c3ccc(C)nc3-c3ccc(C(F)(F)F)cc3)c(C(=O)N(C)C)c2)c(OC)c1` [Compound 1-50, 3-bromo-4-[4-(3-dimethylcarbamoyl-4-{[6-methyl-2-(4-trifluoromethylphenyl)pyridine-3-carbonyl]amino}phenyl)butyryloxy]-5-methoxybenzoic acid methyl ester], the results for the remaining at 10 min in series [1], in series [2] and in series [3] were 0%, 97% and 7%, respectively. Also, the remaining at 1 h in series [1] came out at 0%; in series [2], 103%; in series [3], 2%.
